Patent US20080287425A1, “Method for Controlling Chinch Bugs” (FMC CORPORATION, priority 2005, published 2008)

Tested on: adult southern chinch bugs
Experiment: LC-50 of bifenthrin on chinch bug populations, dipped St. Augustine grass stolons in Petri dishes
Format: in vivo, Blissus insularis
Conditions: about 24 hours at about 28° C
Excerpt: Developing Chinch Bug Resistance to Bifenthrin (Synthetic Pyrethroid) Serial dilutions of bifenthrin were made from Talstar Flowable 7.9% AI (FMC, Philadelphia, Pa.). Freshly harvested St. Augustine grass stolons (about 10 cm long) were dipped into the dilutions and allowed to air dry. The stolons were placed individually into Petri dishes (15 cm diameter) containing moist filter paper to maintain high humidity. Twenty adult southern chinch bugs were placed into each Petri dish and held for about 24 hours at about 28° C. Sample sizes of adults tested ranged from 200 (20 each at 10 dose levels) to 480 (20 each at 24 dose levels) for each location to estimate LC-50 for that location. Different numbers of adults tested per location depended on availability of adults plus variability noted in testing. Since the objective of this study was to estimate LC-50 values, doses expected to give 25 to 75% mortality for best LC-50 were used. Mortality was defined as virtually no movement by an adult during a 5 minute observation period through a 5× large magnifying lens. The no movement criterion was used to avoid ambiguities of comatose, unable to stand, moribund, etc.

**Q.** What does the source list for `Cc1c(COC(=O)[C@@H]2[C@H](/C=C(\Cl)C(F)(F)F)C2(C)C)cccc1-c1ccccc1` (racemic) [bifenthrin]?
**A.** LC-50 (chinch bugs from Belle Glade, control problem in the field: No): 2.6 ppm; LC-50 (chinch bugs from Clermont, control problem in the field: Yes): 78.7 ppm; LC-50 (chinch bugs from Daytona Beach, control problem in the field: Yes): 243.3 ppm; LC-50 (chinch bugs from Fort Pierce, control problem in the field: No): 2.8 ppm; LC-50 (chinch bugs from Gainesville, control problem in the field: No): 10.6 ppm; LC-50 (chinch bugs from Kendall Lakes, control problem in the field: No): 9.3 ppm; LC-50 (chinch bugs from Key Largo, control problem in the field: Yes): 148.2 ppm; LC-50 (chinch bugs from Lithia, control problem in the field: No): 5.4 ppm; LC-50 (chinch bugs from Orlando, control problem in the field: No): 2.3 ppm; LC-50 (chinch bugs from Ormond Beach, control problem in the field: Yes): 698.8 ppm; LC-50 (chinch bugs from Palm Coast, control problem in the field: Yes): 1,693 ppm; LC-50 (chinch bugs from Palmetto, control problem in the field: Yes): 493.6 ppm; LC-50 (chinch bugs from Royal Palm Beach, control problem in the field: No): 7.3 ppm; LC-50 (chinch bugs from Sarasota, control problem in the field: Yes): 89.2 ppm; LC-50 (chinch bugs from Spring Hill, control problem in the field: Yes): 159.3 ppm; LC-50 (chinch bugs from Tamarac, control problem in the field: No): 9.7 ppm
